Source: publication PMC6629894, “Ruthenium Complexes Containing Heterocyclic Thioamidates Trigger Caspase-Mediated Apoptosis Through MAPK Signaling in Human Hepatocellular Carcinoma Cells” (Frontiers in Oncology, 2019)
pIC50: −log10 of the molar value. “Also recorded” adds a separate entry of the source. Like-named read-outs stand apart in the source and are kept apart here.

Key:
[1] = system: B16-F10 (mouse melanoma); assay: Alamar blue cytotoxicity assay, 72 h; assay type: cell-based
From the text: (§1) The cell lines HepG2 (human hepatocellular carcinoma), HL-60 (human promyelocytic leukemia), K-562 (human chronic myelogenous leukemia), B16-F10 (mouse melanoma), MCF-7 (human breast carcinoma), HCT116 (human colon carcinoma), HSC-3 (human oral squamous cell carcinoma), SCC-4 (human oral squamous cell carcinoma), MRC-5 (human lung fibroblast), WT SV40 MEF (wild-type immortalized mouse embryonic fibroblast), and BAD KO SV40 MEF (BAD gene knockout immortalized mouse embryonic fibroblasts) were obtained from the American Type Culture Collection (ATCC, Manassas, VA, USA). Cells were cultured in RPMI 1640 medium (Gibco-BRL, Gaithersburg, MD, USA) with 10% fetal bovine serum (Life, Carlsbad, CA, USA), 2 mM L-glutamine (Vetec Química Fina, Duque de Caxias, RJ, Brazil) and 50 μg/mL gentamycin (Life). For all experiments, adherent cells were collected by treatment with 0.25% trypsin-EDTA solution (Gibco-BRL). All cell lines were cultured in flasks at 37°C in 5% CO2 and were subcultured every 3–4 days to maintain exponential growth. All cell lines were tested for mycoplasma using a mycoplasma staining kit (Sigma-Aldrich Co.) to validate that the cells that were used were free from contamination.
(§2) Cytotoxicity was measured colorimetrically using an Alamar blue method that was performed as previously described ([20], [21]). Cells were seeded in 96-well plates for all experiments (7 × 10^4 cells/mL for adherent cells or 3 × 10^5 cells/mL for suspension cells in 100 μL of medium) and incubated overnight at 37°C with 5% CO2 to allow for adherence. The complexes were dissolved in 0.5% dimethyl sulfoxide (DMSO, Vetec Química Fina) at eight different concentrations from 0.19 to 25 μg/mL and were added to each well and incubated for 72 h. The negative control was treated with the vehicle (0.5% DMSO) that was used to solubilize and dilute the complexes. […] Four (for cell lines) or 24 h (for PBMCs) before the end of incubation, 20 μL of a stock solution (0.312 mg/mL) of resazurin (Sigma-Aldrich Co.) was added to each well. Absorbance was measured at 570 and 600 nm using a SpectraMax 190 Microplate Reader (Molecular Devices, Sunnyvale, CA, USA).

[2] = system: HepG2 (human hepatocellular carcinoma); assay: Alamar blue cytotoxicity assay, 72 h; assay type: cell-based
From the text: as §1, §2

[3] = system: K-562 (human chronic myelogenous leukemia); assay: Alamar blue cytotoxicity assay, 72 h; assay type: cell-based; conditions: for pIC50: read-out: IC50 and 95% CI, K-562, 72 h
From the text: as §1, §2

[4] = system: multicellular spheroids formed from HepG2 cells; assay: 3D multicellular spheroid culture, Alamar blue, 72 h; assay type: cell-based, human; conditions: read-out: IC50 and 95% CI, 3D HepG2 spheroids
Protocol: HepG2 cells were cultivated as 3D multicellular spheroids in a 96-well plate with a cell-repellent surface. Briefly, 100 μL of a suspension of cells (5 × 10^5 cells/mL) was seeded into a 96-well plate with a cell-repellent surface (Greiner Bio-One, Kremsmünster, Austria) and cultured in RPMI 1640 medium with 10% fetal bovine serum, 2 mM glutamine plus 3% Matrigel (BD Biosciences, San Jose, CA, EUA) and 50 μg/mL gentamycin at 37°C with 5% CO2. Spheroids with stable structures formed after 3 days. Then, the complexes were dissolved in 0.5% DMSO at eight different concentrations from 0.19 to 25 μg/mL, were added to each well and incubated for 72 h. […] At the end of the experiment, morphological changes were examined by light microscopy (Olympus BX41, Tokyo, Japan) using Image-Pro software (Media Cybernetics, Inc. Silver Spring, USA), and cytotoxicity was quantified with the Alamar blue method as described above.

[5] = system: WT SV40 MEF (wild-type immortalized mouse embryonic fibroblast); assay: Alamar blue cytotoxicity assay, 72 h; assay type: cell-based; conditions: read-out: IC50 and 95% CI
[6] = system: BAD KO SV40 MEF (BAD gene knockout immortalized mouse embryonic fibroblasts); assay: Alamar blue cytotoxicity assay, 72 h; assay type: cell-based; conditions: read-out: IC50 and 95% CI
[7] = system: HepG2 cells; assay: Trypan blue exclusion assay; assay type: cell-based, human
Protocol: For all subsequent in vitro experiments, 2 mL of a suspension of HepG2 cells were seeded (7 × 10^4 cells/mL) and incubated in a 24-well plate overnight to allow the cells to adhere to the plate surface.
In the trypan blue exclusion assay, the number of viable cells and non-viable cells (stained with trypan blue) were counted. Briefly, 90 μL was removed from the cell suspension, and 10 μL of trypan blue (0.4%) was added. Cell counting was performed using a light microscope with a hemocytometer filled with an aliquot of the homogenized cell suspension.

[8] = system: HepG2 cells engrafted in C.B-17 SCID mice; assay: Human hepatocellular carcinoma xenograft model; assay type: in vivo; conditions: for mean tumor mass: 21 days (negative control 0.6 ± 0.1 g); for tumor mass inhibition rates: 0.5 and 1 mg/kg/day i.p., 21 days
Protocol: A total of 64 C.B-17 severe-combined immunodeficiency (SCID) mice (females, 25–30 g) were obtained and maintained at the animal facilities from Gonçalo Moniz Institute-FIOCRUZ (Salvador, Bahia, Brazil). Animals were housed in cages with free access to food and water. All animals were kept under a 12:12-h light-dark cycle (lights on at 6:00 a.m.). The animals were treated according to the ethical principles for animal experimentation of SBCAL (Brazilian Association of Laboratory Animal Science), Brazil. The Animal Ethics Committee of Gonçalo Moniz Institute–FIOCRUZ (Salvador, Bahia, Brazil) approved the experimental protocol (number 06/2015). Animal welfare was monitored throughout the study, and the pain and suffering were minimized.

[9] = for Differential leukocytes: Eosinophils / Differential leukocytes: Lymphocytes / Differential leukocytes: Monocytes / Differential leukocytes: Neutrophils / Erythrocytes / Total leukocytes: peripheral blood
Protocol: A human hepatocellular carcinoma xenograft model was generated by subcutaneously implanting HepG2 cells (1 × 10^7 cells per 500 μL) into the left front armpit of C.B-17 SCID mice. […] The treatments were initiated one day after the cancer cell injection. The animals were treated intraperitoneally (200 μL per animal) once a day for 21 consecutive days. On the 22nd day, the animals were anesthetized, and peripheral blood samples were collected from the brachial artery. Animals were euthanized by an anesthetic overdose, and tumors were excised and weighed.
To evaluate the toxicological aspects, mice were weighed at the beginning and at the end of the experiment. […] Hematological analysis was performed using an Advia 60 hematology system (Bayer, Leverkusen, Germany).

Cn1ccnc1[S-].F[P-](F)(F)(F)(F)F.[Ru+2].c1ccc(-c2ccccn2)nc1.c1ccc(P(CCCCP(c2ccccc2)c2ccccc2)c2ccccc2)cc1 [Complex 1, [Ru(mmi)(bipy)(dppb)]PF6]
Selectivity index (SI = IC50 [noncancerous cells]/IC50 [cancer cells]) ([1]; MRC-5 vs B16-F10): 1.3 | Selectivity index (SI = IC50 [noncancerous cells]/IC50 [cancer cells]) ([1]; PBMCs vs B16-F10): 1.5 | pIC50 ([2]; read-out: IC50 and 95% CI, HepG2, 72 h): 5.59 | Selectivity index (SI = IC50 [noncancerous cells]/IC50 [cancer cells]) ([3]; PBMCs vs K-562): 1.9 | pIC50 [3]: 5.85 | pIC50 [4]: 5.19 | pIC50 [5]: 5.96 | pIC50 [6]: 6.15 | reduction of the number of viable cells vs negative control ([7]; 5 μM, 24 h): 40.1% | reduction of the number of viable cells vs negative control ([7]; 5 μM, 48 h): 80.9% | reduction of the number of viable cells vs negative control ([7]; 10 μM, 24 h): 78.9% | reduction of the number of viable cells vs negative control ([7]; 10 μM, 48 h): 93.9% | mean tumor mass ([8]; 0.5 mg/kg/day i.p.): 0.4 ± 0.1 g | mean tumor mass ([8]; 1 mg/kg/day i.p.): 0.3 ± 0.1 g | tumor mass inhibition rates [8]: 31.5–45.4% | Initial body weight ([9]; 0.5 mg/kg/day): 21.7 ± 0.2 g | Final body weight ([9]; 0.5 mg/kg/day i.p., 21 days): 20.4 ± 0.3 g | Survival ([9]; 0.5 mg/kg/day i.p., 21 days): 10/10 | Initial body weight ([9]; 1 mg/kg/day): 20.3 ± 0.2 g | Final body weight ([9]; 1 mg/kg/day i.p., 21 days): 20.9 ± 0.4 g | Survival ([9]; 1 mg/kg/day i.p., 21 days): 10/10 | Differential leukocytes: Eosinophils ([9]; 0.5 mg/kg/day, 21 days): 0.7% | Differential leukocytes: Lymphocytes ([9]; 0.5 mg/kg/day, 21 days): 36.4% | Differential leukocytes: Monocytes ([9]; 0.5 mg/kg/day, 21 days): 39.9% | Differential leukocytes: Neutrophils ([9]; 0.5 mg/kg/day, 21 days): 23.8% | Erythrocytes ([9]; 0.5 mg/kg/day, 21 days): 10.5 ± 0.6 10^6cells/μL | Total leukocytes ([9]; 0.5 mg/kg/day, 21 days): 2.3 ± 0.4 10^3cells/μL | Differential leukocytes: Eosinophils ([9]; 1 mg/kg/day, 21 days): 1.4% | Differential leukocytes: Lymphocytes ([9]; 1 mg/kg/day, 21 days): 55.5% | Differential leukocytes: Monocytes ([9]; 1 mg/kg/day, 21 days): 20.1% | Differential leukocytes: Neutrophils ([9]; 1 mg/kg/day, 21 days): 24.4% | Erythrocytes ([9]; 1 mg/kg/day, 21 days): 6.7 ± 0.9 10^6cells/μL | Total leukocytes ([9]; 1 mg/kg/day, 21 days): 3.9 ± 1.9 10^3cells/μL

F[P-](F)(F)(F)(F)F.[Ru+2].[S-]C1=NCCS1.c1ccc(-c2ccccn2)nc1.c1ccc(P(CCCCP(c2ccccc2)c2ccccc2)c2ccccc2)cc1 [Complex 2, [Ru(tzdt)(bipy)(dppb)]PF6]
Selectivity index (SI = IC50 [noncancerous cells]/IC50 [cancer cells]) ([1]; MRC-5 vs B16-F10): 1.2 | Selectivity index (SI = IC50 [noncancerous cells]/IC50 [cancer cells]) ([1]; PBMCs vs B16-F10): 2.0 | Selectivity index (SI = IC50 [noncancerous cells]/IC50 [cancer cells]) ([2]; MRC-5 vs HepG2): 0.8 | Selectivity index (SI = IC50 [noncancerous cells]/IC50 [cancer cells]) ([2]; PBMCs vs HepG2): 1.4 | Selectivity index (SI = IC50 [noncancerous cells]/IC50 [cancer cells]) ([3]; MRC-5 vs K-562): 1.8 | Selectivity index (SI = IC50 [noncancerous cells]/IC50 [cancer cells]) ([3]; PBMCs vs K-562): 2.9 | pIC50 [3]: 6.05 | pIC50 [4]: 5.14 | pIC50 [5]: 5.70 | pIC50 [6]: 5.54 | reduction of the number of viable cells vs negative control ([7]; 2 μM, 24 h): 42.1% | reduction of the number of viable cells vs negative control ([7]; 2 μM, 48 h): 67.3% | reduction of the number of viable cells vs negative control ([7]; 4 μM, 24 h): 58.6% | reduction of the number of viable cells vs negative control ([7]; 4 μM, 48 h): 93.1% | mean tumor mass ([8]; 0.5 mg/kg/day i.p.): 0.3 ± 0.1 g | fibrosis in tumor histology ([8]; 1 mg/kg/day): most evident fibrosis | mean tumor mass ([8]; 1 mg/kg/day i.p.): 0.2 ± 0.1 g | tumor mass inhibition rates [8]: 46.9–67.7% | Initial body weight ([9]; 0.5 mg/kg/day): 20.4 ± 0.4 g | Final body weight ([9]; 0.5 mg/kg/day i.p., 21 days): 20.8 ± 0.4 g | Heart relative weight ([9]; 0.5 mg/kg/day i.p., 21 days): 0.6 ± 0.1 g/100 g body weight | Kidney relative weight ([9]; 0.5 mg/kg/day i.p., 21 days): 1.5 ± 0.1 g/100 g body weight | Liver relative weight ([9]; 0.5 mg/kg/day i.p., 21 days): 4.7 ± 0.2 g/100 g body weight | Lung relative weight ([9]; 0.5 mg/kg/day i.p., 21 days): 0.8 ± 0.1 g/100 g body weight | Survival ([9]; 0.5 mg/kg/day i.p., 21 days): 10/10 | Initial body weight ([9]; 1 mg/kg/day): 19.9 ± 0.5 g | Final body weight ([9]; 1 mg/kg/day i.p., 21 days): 19.4 ± 0.5 g | Heart relative weight ([9]; 1 mg/kg/day i.p., 21 days): 0.6 ± 0.1 g/100 g body weight | Kidney relative weight ([9]; 1 mg/kg/day i.p., 21 days): 1.5 ± 0.1 g/100 g body weight | Liver relative weight ([9]; 1 mg/kg/day i.p., 21 days): 4.6 ± 0.1 g/100 g body weight | Lung relative weight ([9]; 1 mg/kg/day i.p., 21 days): 0.8 ± 0.1 g/100 g body weight | Survival ([9]; 1 mg/kg/day i.p., 21 days): 10/10 | hepatotoxicity: focal areas of coagulation necrosis in the liver (histology) ([9]; 0.5 and 1 mg/kg/day i.p., 21 days): more evident; also recorded: evidence of hepatotoxicity | Differential leukocytes: Eosinophils ([9]; 0.5 mg/kg/day, 21 days): 1.3% | Differential leukocytes: Lymphocytes ([9]; 0.5 mg/kg/day, 21 days): 39.9% | Differential leukocytes: Monocytes ([9]; 0.5 mg/kg/day, 21 days): 39.1% | Differential leukocytes: Neutrophils ([9]; 0.5 mg/kg/day, 21 days): 21.1% | Erythrocytes ([9]; 0.5 mg/kg/day, 21 days): 8.5 ± 1.0 10^6cells/μL | Total leukocytes ([9]; 0.5 mg/kg/day, 21 days): 2.5 ± 0.4 10^3cells/μL | Differential leukocytes: Eosinophils ([9]; 1 mg/kg/day, 21 days): 1.1% | Differential leukocytes: Lymphocytes ([9]; 1 mg/kg/day, 21 days): 32.2% | Differential leukocytes: Monocytes ([9]; 1 mg/kg/day, 21 days): 32.5% | Differential leukocytes: Neutrophils ([9]; 1 mg/kg/day, 21 days): 34.4% | Erythrocytes ([9]; 1 mg/kg/day, 21 days): 7.8 ± 0.8 10^6cells/μL | Total leukocytes ([9]; 1 mg/kg/day, 21 days): 2.7 ± 0.4 10^3cells/μL
